# From ChEMBL document CHEMBL5360582, “Caryophyllene Sesquiterpenes from a Chaetomium globosum Endophyte of the Canadian Medicinal Plant Empetrum nigrum” (J Nat Prod, 2023)
# Calls of active or inactive are those of the source. No cut-off for these calls is given here.
# Assays:
# Staphylococcus aureus [1] = test: Antibacterial activity against Staphylococcus aureus ATCC 29213 assessed as inhibition of bacterial growth; assay type: functional, organism-based
# [2] = test system: Mycobacterium tuberculosis; test: Antimycobacterial activity against Mycobacterium tuberculosis H37Ra ATCC 25177 assessed as inhibition of bacterial growth; assay type: functional, organism-based
# SMMC-7721 = test: Cytotoxicity against human SMMC-7721 cells assessed as inhibition of cell growth incubated for 68 hrs by MTT assay; assay type: functional, cell-based; settings: SMMC-7721, 68 h
# Staphylococcus aureus [3] = test: Antibacterial activity against Staphylococcus aureus ATCC 29213 assessed as inhibition of bacterial growth at 100 microg/ml; assay type: functional, organism-based; settings: dose 100.0 µg/ml
# Candida albicans = test: Antifungal activity against Candida albicans ATCC 14053 assessed as inhibition of bacterial growth at 100 microg/ml; assay type: functional, organism-based; settings: dose 100.0 µg/ml
# Pseudomonas aeruginosa = test: Antibacterial activity against Pseudomonas aeruginosa ATCC 10145 assessed as inhibition of bacterial growth at 100 microg/ml; assay type: functional, organism-based; settings: dose 100.0 µg/ml
# [4] = test system: Mycobacterium tuberculosis; test: Antimycobacterial activity against Mycobacterium tuberculosis H37Ra ATCC 25177 assessed as inhibition of bacterial growth at 100 microg/ml; assay type: functional, organism-based; settings: dose 100.0 µg/ml
SMILES,IC50 (SMMC-7721),Activity (Staphylococcus aureus [3]),Activity (Candida albicans),Activity (Pseudomonas aeruginosa),Activity [4],also measured
C/C1=C/[C@@H](OC(=O)CCC(=O)O)/C=C(/C=O)[C@H]2CC(C)(C)[C@]2(O)CC1,–,–,–,–,–,IC50 (Staphylococcus aureus [1]): 83 µg/mL; IC50 [2]: 36.8 µg/mL
COc1cc([C@@H]2c3cc4c(cc3[C@@H](O[C@@H]3O[C@@H]5CO[C@@H](C)O[C@H]5[C@H](O)[C@H]3O)[C@H]3COC(=O)[C@H]23)OCO4)cc(OC)c1O [ETOPOSIDE],23.2 µM,–,–,–,–,–
CC1(C)C[C@@H]2/C(CO)=C\C=C/[C@@](C)(O)CC[C@]21O,–,inactive,inactive,inactive,inactive,–
CC1(C)C[C@@H]2[C@@]3(CO)C=C[C@@H](O)[C@@]3(C)CC[C@]21O,–,inactive,inactive,inactive,inactive,–
CO[C@H]1[C@@H]2[C@@H](O)O[C@]3([C@H](OC(C)=O)C/C(C)=C\[C@@H]1OC)[C@H]2CC3(C)C,28.3 µM,–,–,–,–,–
